The values that follow are results of earlier work, collected in patent publication US20050131071A1, “Orodispersible pharmaceutical composition of agomelatine” (priority 2003, published 2005).

The conditions of the series: humans; oral route in relation to the parenteral route.

Consider `COc1ccc2cccc(CCNC(C)=O)c2c1` [agomelatine, N-[2-(7-methoxy-1-naphthyl)ethyl]acetamide], for which the “bioavailability by the oral route” value is “very low”.
